In US4416885A, “Use of isopropylaminopyrimidine in the chemotherapy of muscular dystrophy, myopathy and myotonia” (priority 1982, dated 1983):

How the values were obtained:
[1] = system: Dystrophic monocytes; experiment: Effect on human monocytes in culture (flat cells), dystrophic; assay type: cell-based; conditions: dystrophic monocyte + dibutryl c-GMP, one individual; untreated dystrophic 36.2%; preliminary
[2] = system: dystrophic New Hampshire chickens, line 413; experiment: Overall assessment of chemotherapy over all parameters measured; assay type: in vivo, chicken; conditions: 413 chickens, after 28 days of dilantin injections
Experimental: The compound IAPP was tested on dystrophic New Hampshire chickens, line 413, and Imperial College (London, England) sub-line of the original Davis, University of California strain. The chickens are homozygous for muscular dystrophy, the disease appearing with 100% incidence.
Chemotherapy was assessed by application of seven different parameters: physical tests of muscular disability, namely the flip test and wing apposition (W.A.) measurements; biochemical assays of serum and muscle enzume levels of creatine phosphokinase (CPK), pyruvate kinase (PK) and acetylcholinesterase (AChE); and histological comparisons of treated and untreated muscle. Toxicity studies (weight loss, etc.) were also used. A very comprehensive profile of the drug was thus obtained which related to all the known, highly characteristic features of the disease which are applicable to both the animal model and the human. […]

[3] = system: dystrophic 413 muscle explants; experiment: Microtubule complexes in muscle explants of injected dystrophic chickens; assay type: in vivo, chicken; conditions: dystrophic 413 chickens, 28 days of dilantin injections
From the text: Essentially, these experiments were divided into three subgroups, taken from the previous Table:
413A, 413B, 412A, 412B: All were sacrificed after 4 injections and muscle explants placed in culture.
413C, 412C: All were sacrificed after 8 injections and muscle explants were placed in culture.
413D, 412D: All were sacrificed after 10 injections and muscle explants placed in culture.
All explants were placed in CMRL culture medium containing 5% horse serum, 15% fetal bovine serum and 1% antibiotics and allowed to grow for 5-7 days before being fixed and observed for the presence or absence of microtubules. No IAPP was added to the culture medium during the 5-7 days in culture.

CCCC(=O)Nc1nc2c(ncn2[C@@H]2O[C@@H]3COP(=O)(O)O[C@H]3[C@H]2OC(=O)CCC)c(=O)[nH]1 [dibutryl c-GMP, reference compound]
% Flat Cells [1]: 52.0%

O=C1NC(=O)C(c2ccccc2)(c2ccccc2)N1 [dilantin, reference compound]
Appearance of dystrophic chickens [2]: Some dystrophic 413 chickens appeared normal
Correction of microtubule defect in explants [3]: did not have their microtubule defect corrected
